Key:
[1] = Stability of lenalidomide in different solvents; type: physicochemical; details: 0.5 mg/mL racemic mixture, room temperature or 50° C., 24 hours
[2] = Dependence of racemization half-life on pH in aqueous buffers at room temperature; type: physicochemical
Description: In order to elucidate the racemization half-life of lenalidomide and its pH dependence, an experiment was conducted with the following scheme and HPLC conditions.
The enantiomeric excess rate (EE, [(S−R)/(S+R)×100], %) at each point is plotted in FIG. 7, and the log10 (EE) vs. time plot is shown in FIG. 8.
This linearity was used to calculate the time for EE=50 based on a straight line approximation (y=ax+b), to determine the racemization half-life. The stability of the pure enantiomer is very highly dependent on pH, the half-life being 10 times longer for every pH reduction of 1, and estimation of the half-life was no longer possible at pH 4. At pH 9, on the other hand, sudden racemization and decomposition were observed.

[3] = NPL 11; cited from earlier work
[4] = Na-phosphate buffer pH 7.4, 37° C., average of 3 tests ± SD
[5] = Racemization half-life in human serum (37° C.); details: for racemization half-life in serum, times longer than the corresponding TD enantiomer: human serum, 37° C.
From the text: The analysis method of the invention is shown as scheme (b). The acid used to suspend the reaction while simultaneously precipitating and removing the protein was HClO4.

Nc1cccc2c1CN(C1CCC(=O)NC1=O)C2=O (racemic) [lenalidomide, Lenalidomide]
stability in solvent (enantiomer peak areas before and after incubation) ([1]; acetonitrile): no decomposition was observed | stability in solvent (enantiomer peak areas before and after incubation) ([1]; ethanol): highly unstable | stability in solvent (enantiomer peak areas before and after incubation) ([1]; ethyl acetate): no decomposition was observed | stability in solvent (enantiomer peak areas before and after incubation) ([1]; isopropanol): stable | stability in solvent (enantiomer peak areas before and after incubation) ([1]; methanol): highly unstable | racemization and decomposition in aqueous buffer (peak areas) ([2]; pH 9 and 8, room temperature): racemization and decomposition of LL takes place

O=C1CCC(N2C(=O)c3ccccc3C2=O)C(=O)N1 (racemic) [thalidomide]
excretion half-life [3]: 8.7 h

Nc1cccc2c1CN(C1CCC(=O)NC1=O)C2=O (single isomer, unassigned) [(R*)-LL]
racemization half-life in aqueous buffer [4]: 4.45 ± 0.0183 h | racemization half-life in serum, times longer than the corresponding TD enantiomer [5]: 3 times | racemization half-life in human serum [5]: 1.82 ± 0.0333 h

Nc1cccc2c1CN(C1CCC(=O)NC1=O)C2=O (single isomer, unassigned) [(S*)-LL]
racemization half-life in aqueous buffer [4]: 4.53 ± 0.0217 h | racemization on incubation in aqueous buffer ([2]; pH 6, room temperature): small amount of (R*)-LL was produced | racemization on incubation in aqueous buffer ([2]; pH 7 and higher, room temperature): racemization was significantly accelerated | racemization half-life in serum, times longer than the corresponding TD enantiomer [5]: 6 times | racemization half-life in human serum [5]: 2.18 ± 0.0817 h

Source: patent publication US10047068B2, “Optical resolution method of lenalidomide” (Shiseido Company, Ltd, priority 2014, dated 2018)
